Laboratory results: PubChem BioAssay AID449762 (Southern Research Specialized Biocontainment Screening …, 2010)
Inconclusive results are not listed.

System: M. tuberculosis H37Rv growth inhibition, 7H9 media
Experiment: M. tuberculosis growth inhibition, HTS (AID 449762);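 also: bacterial growth assessed after seven days of incubation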
Details: for IC90: measured here: IC90 growth inhibition

Compound | IC50 [µM] | IC90 [µM]
COC(=O)COc1ccc(-c2ccccc2)cc1C=O | 11 | 19
Cc1ccc(-n2nnc3c(=O)oc4ccccc4c32)cc1 | < 0.2 | 19.9
COC(=O)c1ccc2c(c1O)C(=O)c1ccccc1C2=O | 65.4 | 77.9
CCN(CC)c1ccc(/C=C2\SC(=O)N(C(C)C)C2=O)o1 | 1.34 | 4.79
COc1ccc(N(CC(=O)Nc2cc(Cl)ccc2C)S(=O)(=O)c2c(C)n[nH]c2C)cc1 | 45.8 | 51.2
Nc1nc2ccccc2n1CCOc1ccccc1Cl | 12.1 | 13.3
NC1=NC[C@H](CC2CCCCC2)N1CCc1cc(C(F)(F)F)cc(C(F)(F)F)c1 | 8.9 | 11.6
CCc1ccc(NC2=NCC(c3ccccc3)S2)cc1 (stereo not drawn) | 3.03 | > 100
COc1ccc(C(C)=O)cc1COC(=O)c1ccc2ccccc2n1 | 27.8 | > 100
c1ccc(CN2CCN(c3nc(NCc4ccco4)c4ccccc4n3)CC2)cc1 | 18.1 | 23.8
CCCCOC(=O)CSc1nnc(-c2ccc(Cl)cc2Cl)o1 | < 0.2 | 1.85
O=C(CNC(=O)c1ccc(Cl)cc1)c1ccc(Cl)cc1 | 96.6 | > 100
CCN=c1scc(-c2ccco2)n1/N=C/c1ccc(OC)c(O)c1 | 12.3 | 41.8
CN1OC(COC(=O)c2ccc(Cl)cc2Cl)CC1c1ccccc1 (stereo not drawn) | 2.43 | 16.3
Cc1ccc(C)c(-c2nnc(NC(=O)C3=COCCO3)o2)c1 | 5.33 | 12.2
Cc1cc(NC2CCCCC2)nc(-c2ccccc2O)n1 | 39.2 | 51.3
O=C(Nc1nc2c(s1)CCCC2)c1cc(-c2ccc3c(c2)OCO3)nc2ccccc12 | 66 | > 100
CCc1ccc(Nc2n[n+](C)c(-c3ccncc3)s2)cc1 | 45.3 | 51.3
CC(C)c1ccc2[nH]c(O)c(N=NC(=O)c3ccc(CSc4nncn4C)cc3)c2c1 | – | > 100
Nc1c2c(nc3ccn(Cc4ccccc4)c(=O)c13)CCC2 | 13.7 | 33.6
CCc1ccc(C2c3[nH]c4ccccc4c3CCN2C(=O)c2ccc(=O)n(C)n2)cc1 (stereo not drawn) | 49.6 | 74.3
CCCCCCCNC(=O)C1(CC2CC(c3cccc(Br)c3)=NO2)CCNCC1 (stereo not drawn) | 42 | 53.1
O=C(NC1CCCCC1)C(c1ccc2ncccc2c1)N(Cc1ccco1)C(=O)c1ccc2c(c1)OCCO2 (stereo not drawn) | 92.7 | > 100

Compound | IC50 [µM] | IC90 [µM]
C[Se]C[C@@H](N)C(=O)O | 51 | 69.6
CC1(C)Cc2c(cnn2-c2ccccc2)-c2c1c1ccccc1n2CC(O)CCl (stereo not drawn) | 88.2 | > 100
Cc1ccc2nc(N/N=C/c3ccccc3C#N)nc(-c3ccccc3)c2c1 | 81.1 | > 100
O=C(COC(=O)c1cccs1)c1ccccc1 | 45 | > 100
Nc1c(C(=O)OCC2CCCO2)c2nc3ccccc3nc2n1C1CCCC1 (stereo not drawn) | 54.5 | > 100
Cc1ccc(S(=O)(=O)CNC(=S)c2ccc3ccccc3c2)cc1 | – | > 100
COC(=O)CN1C(c2ccc(Cl)cc2)=Nc2ccc(Cl)cc2C1c1ccccc1 (stereo not drawn) | 11.8 | 13.7
CCOC(=O)c1c(-c2ccc(OC)cc2)csc1NC(=O)CNCc1ccco1 | 10.9 | 16.4
CCCCN1C(=N)N([C@@H](CCC)CN2CCC[C@H]2CN2C(N)=NC[C@@H]2Cc2ccccc2)C[C@H]1Cc1ccccc1 | 12.8 | 18.2
CSC1=NC(C)(C)C=C(/C=C/c2ccc(Cl)cc2)N1 | 21.5 | 44.5
CC1=NN(c2ccccc2)C(=O)/C1=C\c1c(C)[nH]n(-c2ccccc2)c1=O | 18.2 | 46
CC(/C=C/C=C/c1ccccc1)=N\NC(=O)c1cccnc1 | 91.8 | > 100
COc1cc(/C=N/n2c(-c3ccc4c(c3)NC(=O)CO4)csc2=Nc2cccc(C)c2)ccc1O | 34 | > 100
CCOc1ccc(N2C=Nc3ccc(OCC)cc3C2)cc1 | 44 | 89.4
CC(C)(C)C1CCc2nc(NC(=O)Cc3cn4ccsc4n3)sc2C1 (stereo not drawn) | 15.5 | 39.6
O=c1c2c(nc3nc(NCc4ccc(Cl)cc4)[nH]n13)CCC2 | 6.28 | 7.32
COc1cc(NC(=O)c2cnc(N)s2)cc(C(=O)Nc2cccc(C(F)(F)F)c2)c1 | 52 | 78.8
Cc1ccccc1N1CCN(c2ncnc3c2cnn3Cc2ccc(Cl)cc2)CC1 | 5.12 | 8.72
CN(C)[C@@H]1C(=O)C(C(N)=O)=C(O)[C@@]2(O)C(=O)C3=C(O)c4c(O)cccc4[C@@](C)(O)C3C[C@@H]12 (stereo partly drawn) | 5.95 | 15
C=CCOc1c(Br)cc(CNc2nccs2)cc1OC | 22.3 | 40.9
Cc1ccc(C(=O)c2cc(C)sc2NC(=O)CN2CCN(C(=O)c3ccco3)CC2)cc1 | 3.81 | 12
CCN(CC)C(=O)[C@H]1CC(CC(=O)NCC23CC4CC(CC(C4)C2)C3)C(=O)N2CCc3c([nH]c4ccccc34)[C@]12C (stereo partly drawn) | 18.3 | 24.8
